The experiment concerns the target T1, hROMK (hKir1.1) (Homo sapiens, UniProt P48048).
T1 construct: expressed in transfected cells
T1 sequence (P48048 1-391): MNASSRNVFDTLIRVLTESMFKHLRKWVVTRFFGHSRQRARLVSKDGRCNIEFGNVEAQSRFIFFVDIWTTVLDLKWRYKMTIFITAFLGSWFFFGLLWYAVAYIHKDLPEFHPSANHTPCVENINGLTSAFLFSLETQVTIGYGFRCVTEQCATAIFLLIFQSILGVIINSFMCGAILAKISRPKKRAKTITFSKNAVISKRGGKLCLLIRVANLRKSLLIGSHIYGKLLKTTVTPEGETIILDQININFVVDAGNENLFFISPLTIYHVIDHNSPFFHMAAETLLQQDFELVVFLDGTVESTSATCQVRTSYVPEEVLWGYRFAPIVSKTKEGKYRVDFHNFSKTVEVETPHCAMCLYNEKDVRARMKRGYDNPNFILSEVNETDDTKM
Briefly: Thallium Flux Assay. The class given is cell-based. A digest of the protocol:
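HEK293 cells stably expressing hROMK, loaded with FluxOR dye 90 min at ambient temperature, then compound 30 min with 0.3 mM ouabain in probenecid buffer pH 7.4.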

[1] abbreviates: HEK293 cells stably expressing hROMK (hKir1.1), FLIPR-Tetra, read-out: Thallium Flux IC50.

Each structure is given as a SMILES string. pIC50: −log10 of the molar value. Where two headings read alike, the source gives them in different places.

Regarding `Cc1c([C@@H]2CN3CCN(C(=O)Cc4ccc(-n5cnnn5)nc4)C[C@H]3CO2)cccc1-n1cnnn1` [Example 104, (3R,9aS)-3-[2-methyl-3-(1H-tetrazol-1-yl)phenyl]-8-{[6-(1H-tetrazol-1-yl)pyridin-3-yl]acetyl}octahydropyrazino[2,1-c][1,4]oxazine], the pIC50 (usually the IC50 on a negative log10 scale, so that one unit is a factor of ten) under setting [1] was 6.32.

As for `COc1c([C@@H]2CN3CCN(C(=O)Cc4cnc(-n5cnnn5)nc4)C[C@H]3CO2)ccc(F)c1C#N` [Example 140, 6-fluoro-2-methoxy-3-[(3R,9aS)-8-{[2-(1H-tetrazol-1-vl)pvrimidin-5-yl]acetyl}octahydropyrazino[2,1-c][1,4]oxazin-3-yl]benzonitrile], the pIC50 under setting [1] is 6.92. On the same count and under the same terms, the value for `Cc1nc(-n2cnnn2)ncc1CC(=O)N1CCN2C[C@@H](c3ccc(F)c(C#N)c3Cl)OC[C@H]2C1` [Example 138, 2-chloro-6-fluoro-3-[(3R,9aR)-8-{[4-methyl-2-(1H-tetrazol-1-vl)pvrimidin-5-yl]acetyl}octahydropyrazino[2,1-c][1,4]oxazin-3-yl]benzonitrile] was 6.85. With `N#Cc1c(F)ccc([C@@H]2CN3CCN(C(=O)Cc4cnc(-n5cnnn5)nc4)C[C@@H]3CO2)c1Cl` [Example 125, 2-chloro-6-fluoro-3-[(3R,9aR)-8-{[2-(1H-tetrazol-1-yl)pyrimidin-5-yl]acetyl}octahydropyrazino[2,1-c][1,4]oxazin-3-yl]benzonitrile], under “Thallium Flux IC50”, the pIC50 was 7.22.

As to `Cc1c([C@@H]2CN3CCN(C(=O)Cc4cccc(-n5cnnn5)n4)C[C@H]3CO2)ccc(F)c1C#N` [Example 98, 6-fluoro-2-methyl-3-[(3R,9aS)-8-{[6-(1H-tetrazol-1-yl)pyridin-2-yl]acetyl}octahydropyrazino[2,1-c][1,4]oxazin-3-yl]benzonitrile], the pIC50 under setting [1] was 6.25. Regarding `N#Cc1ccc([C@@H]2CN3CCN(C(=O)Cc4ccc(-n5cnnn5)nc4)C[C@H]3CO2)cc1F` [Example 66, 2-fluoro-4-[(3R,9aS)-8-{[6-(1H-tetrazol-1-yl)pyridin-3-yl]acetyl}octahydropyrazino[2,1-c][1,4]oxazin-3-yl]benzonitrile], under setting [1], the pIC50 is 6.43.

For `Cc1cc([C@H]2CN3CCN(C(=O)Cc4ccc(-n5cnnn5)nc4)C[C@@H]3CO2)c(C)c(C#N)c1F` [Example 173, 2-fluoro-3,6-dimethyl-5-[(3S,9aR)-8-{[6-(1H-tetrazol-1-vl)pvridin-3-yl]acetyl}octahydropyrazino[2,1-c][1,4]oxazin-3-yl]benzonitrile], under setting [1], the pIC50 was 6.52. Regarding `Cc1c([C@@H]2CN3CCN(C(=O)Cc4cnc(-n5cnnn5)cn4)C[C@H]3CO2)ccc(F)c1C#N` [Example 75, 6-fluoro-2-methyl-3-[(3R,9aS)-8-{[5-(1H-tetrazol-1-yl)pyrazin-2-yl]acetyl}octahydropyrazino[2,1-c][1,4]oxazin-3-yl]benzonitrile], the pIC50 (Thallium Flux IC50) is 6.89.

For the compound `Cc1c([C@@H]2CN3CCN(C(=O)Cc4ccc(-n5cnnn5)nc4)C[C@H]3CO2)ccc(F)c1C#N` [Example 5, 6-fluoro-2-methyl-3-[(3R,9aS)-8-{[6-(1H-tetrazol-1-yl)pyridin-3-yl]acetyl}octahydropyrazino[2,1-c][1,4]oxazin-3-yl]benzonitrile], the pIC50 (Thallium Flux IC50) was 7.30. The compound `Cc1c([C@@H]2CN3CCN(C(=O)Cc4ccc(-n5cnnn5)cn4)C[C@H]3CO2)csc1C#N` [Example 70, 3-methyl-4-[(3R,9aS)-8-{[5-(1H-tetrazol-1-yl)pyridin-2-yl]acetyl}octahydropyrazino[2,1-c][1,4]oxazin-3-yl]thiophene-2-carbonitrile] gave a pIC50 (Thallium Flux IC50) of 6.57.

Turning to `Cc1c([C@@H]2CN3CCN(C(=O)Cc4ccc(-n5cnnn5)nc4)C[C@@H]3CCO2)ccc(F)c1C#N` (single isomer, unassigned) [Example 170], the pIC50 (Thallium Flux IC50) is 6.62. As for `Cc1c([C@H]2CN3CCN(C(=O)Cc4ccc(-n5cnnn5)cn4)C[C@H]3CO2)csc1C#N` [Example 71, 3-methyl-4-[(3S,9aS)-8-{[5-(1H-tetrazol-1-yl)pyridin-2-yl]acetyl}octahydropyrazino[2,1-c][1,4]oxazin-3-yl]thiophene-2-carbonitrile], the pIC50 under setting [1] is 6.41. In turn, `Cc1c([C@H]2CN3CCN(C(=O)Cc4ccc(-n5cnnn5)nc4)C[C@@H]3CO2)ccc2c1COC2=O` [Example 24, 4-methyl-5-[(3S,9aR)-8-{[6-(1H-tetrazol-1-yl)pyridin-3-yl]acetyl}octahydropyrazino[2,1-c][1,4]oxazin-3-yl]-2-benzofuran-1(3H)-one] had a pIC50 (Thallium Flux IC50) of 6.80. Same read-out and setting: the value for `Cc1c(C2CN3CCN(C(=O)Cc4ccc(-n5cnnn5)nc4)CC3CCO2)ccc2c1COC2=O` (single isomer, unassigned) [Example 163, 4-methyl-5-(2-{[6-(1H-tetrazol-1-yl)pyridin-3-yl]acetyl}octahydro-2H-pyrazino[1,2-d][1,4]oxazepin-7-yl)-2-benzofuran-1(3H)-one] was 6.68.

Compound `O=C(Cc1ccc(-n2cnnn2)nc1)N1CCN2C[C@H](c3ccc4nonc4c3)OC[C@@H]2C1` [Example 180, (3S,9aS)-3-(2,1,3-benzoxadiazol-5-yl)-8-{[6-(1H-tetrazol-1-vl)pvridin-3-yl]acetyl}octahydropyrazino[2,1-c][1,4]oxazine] gave a pIC50 (Thallium Flux IC50) of 6.23. In the case of `Cc1c([C@@H]2CN3CCN(C(=O)Cc4cccc(-n5cnnn5)n4)C[C@@H]3CO2)ccc(F)c1C#N` [Example 161, 6-fluoro-2-methyl-3-[(3R,9aR)-8-{[6-(1H-tetrazol-1-yl)pyridin-2-yl]acetyl}octahydropyrazino[2,1-c][1,4]oxazin-3-yl]benzonitrile], under setting [1], the pIC50 is 6.46. `Cc1c([C@H]2CN3CCN(C(=O)Cc4cnc(-n5cnnn5)cn4)C[C@H]3CO2)ccc(F)c1C#N` [Example 76, 6-fluoro-2-methyl-3-[(3S,9aS)-8-{[5-(1H-tetrazol-1-yl)pyrazin-2-yl]acetyl}octahydropyrazino[2,1-c][1,4]oxazin-3-yl]benzonitrile] had a pIC50 (Thallium Flux IC50) of 6.82. For the setting “Thallium Flux IC50”, `COc1cc([C@@H]2CN3CCN(C(=O)Cc4ccc(-n5cnnn5)nc4)C[C@H]3CO2)cc(F)c1C#N` [Example 114, 2-fluoro-6-methoxy-4-[(3R,9aS)-8-{[6-(1H-tetrazol-1-vl)pvridin-3-yl]acetyl}octahydropyrazino[2,1-c][1,4]oxazin-3-yl]benzonitrile] had a pIC50 of 6.96.

In the case of `N#Cc1c(F)cc([C@H]2CN3CCN(C(=O)Cc4ccc(-n5cnnn5)nc4)C[C@H]3CO2)cc1F` [Example 109, 2,6-difluoro-4-[(3S,9aS)-8-{[6-(1H-tetrazol-1-yl)pyridin-3-yl]acetyl}octahydropyrazino[2,1-c][1,4]oxazin-3-yl]benzonitrile], the pIC50 under setting [1] was 6.72.

For the compound `Cc1c(C#N)cccc1[C@H]1CN2CCN(C(=O)Cc3cnc(-n4cnnn4)nc3)C[C@H]2CO1` [Example 18, 2-methyl-3-[(3S,9aS)-8-{[2-(1H-tetrazol-1-yl)pyrimidin-5-yl]acetyl}octahydropyrazino[2,1-c][1,4]oxazin-3-yl]benzonitrile], under setting [1], the pIC50 is 6.49. `O=C1OCc2c1ccc([C@H]1CN3CCN(C(=O)Cc4ccc(-n5cnnn5)nc4)C[C@H]3CO1)c2Cl` [Example 47, 4-chloro-5-[(3S,9aS)-8-{[6-(1H-tetrazol-1-yl)pyridin-3-yl]acetyl}octahydropyrazino[2,1-c][1,4]oxazin-3-yl]-2-benzofuran-1(3H)-one] showed a pIC50 (Thallium Flux IC50) of 7.05. Turning to `N#Cc1c(F)ccc([C@H]2CN3CCN(C(=O)Cc4ccc(-n5cnnn5)nc4)C[C@@H]3CO2)c1F` [Example 87, 2,6-difluoro-3-[(3S,9aR)-8-{[6-(1H-tetrazol-1-yl)pyridin-3-yl]acetyl}octahydropyrazino[2,1-c][1,4]oxazin-3-yl]benzonitrile], the pIC50 (Thallium Flux IC50) was 6.66.

For `O=C1OCCc2cc([C@@H]3CN4CCN(C(=O)Cc5ccc(-n6cnnn6)nc5)C[C@H]4CO3)ccc21` [Example 1], the pIC50 (read-out: Thallium Flux IC50) is 7.10. Turning to `Cc1c([C@@H]2CN3CCN(C(=O)Cc4ccc(-n5cnnn5)nc4)C[C@H]3CO2)csc1C#N` [Example 68, 3-methyl-4-[(3R,9aS)-8-{[6-(1H-tetrazol-1-yl)pyridin-3-yl]acetyl}octahydropyrazino[2,1-c][1,4]oxazin-3-yl]thiophene-2-carbonitrile], under setting [1], the pIC50 was 7.40. In the case of `O=C1OCc2cc([C@@H]3CN4CCN(C(=O)Cc5ccc(-n6cnnn6)cn5)C[C@H]4CO3)ccc21` [Example 27, 5-[(3R,9aS)-8-{[5-(1H-tetrazol-1-yl)pyridin-2-yl]acetyl}octahydropyrazino[2,1-c][1,4]oxazin-3-yl]-2-benzofuran-1(3H)-one], under setting [1], the pIC50 is 7.00.

For the compound `Cc1nc(-n2cnnn2)ncc1CC(=O)N1CCN2C[C@@H](c3ccc(F)c(C#N)c3C)OC[C@H]2C1` [Example 120, 6-fluoro-2-methyl-3-[(3R9aR)-8-{[4-methyl-2-(1H-tetrazol-1-yl)pyrimidin-5-yl]acetyl}octahydropyrazino[2,1-c][1,4]oxazin-3-yl]benzonitrile], under setting [1], the pIC50 is 6.70. The compound `Cc1c([C@@H]2CN3CCN(C(=O)Cc4cnc(-n5cnnn5)nc4)C[C@H]3CO2)ccc(F)c1C#N` [Example 14] gave a pIC50 (Thallium Flux IC50) of 7.10.

Source of the values: EP2790511B1 (Merck Sharp & Dohme Corp., priority 2011, dated 2013).
